Earlier results as cited in US20230126271A1, “DEGRADER-ANTIBODY CONJUGATES AND METHODS OF USING SAME” (Anglex, Inc., priority 2020, published 2023).

How the values were obtained:
[1] = in vivo
[2] = in vivo; remark: listed apart in the source

Row | Structure (SMILES) | toxicity in the clinic [1] | patients who experienced heart attacks while being treated [2]
1 | CN(C)CC#Cc1ccc(OCCCc2sc(N3CCc4cccc(C(=O)Nc5nc6ccccc6s5)c4C3)nc2C(=O)O)c(F)c1 [A115463] | on-target and dose-limiting thrombocytopenia | –
2 | CC1(C)CCC(c2ccc(Cl)cc2)=C(CN2CCN(c3ccc(C(=O)NS(=O)(=O)c4ccc(N[C@H](CCN5CCOCC5)CSc5ccccc5)c(S(=O)(=O)C(F)(F)F)c4)cc3)CC2)C1 [ABT 263] | on-target and dose-limiting thrombocytopenia | –
3 | COc1ccc(/C=C\c2cc(OC)c(OC)c(OC)c2)cc1OP(=O)(O)O [CA4P, Combretastatin] | – | seven
